Laboratory results from patent US20230193562A1, “METHOD FOR CONTROLLING VOLATILE FATTY ACID CONTENT IN PULP, PAPER, AND/OR BOARD MAKING PROCESSES” (SOLENIS TECHNOLOGIES, L.P., priority 2021, published 2023).
Like-named read-outs stand apart in the source and are kept apart here.

System: Microbial strains (5) isolated from paper mill water samples
Test: VFA reduction in TGE broth cultures of paper mill microbial isolates, VFA measured by GC-FID
Assay type: cell-based
Protocol: Equipment: A Gas Chromatograph (GC) equipped with a flame ionization detector (FID) (e.g. Agilent 6890N GC or equivalent) equipped with an autosampler is utilized with a Fused Silica Capillary Column (e.g. Agilent DB-WAX UI, 30 m×0.53 mm×1.0 μm).
Sample Preparation: An aliquot (0.5 mL) of a sample is taken from a shaken sample well via pipet and transferred into a glass vial with the standard diluent (4.5 mL). The glass vial is then capped and vortexed, and a portion of the contents transferred into a GC vial.
GC Standardization: The GC is standardized by injecting 2.0 μL of each working standard using the instrument parameters listed in Table 2 below. The areas for the standards are used to create a linear calibration curve in GC software (e.g. Agilent Chemstation or equivalent).
Quantitative Sample Analysis: Samples (2 μL injection volume) are analyzed against the working standards, with appropriate dilutions made to keep sample concentrations within the range of the standards. Peak areas of the samples are compared to the standard curves to determine the amounts of each VFA present in each sample via GC software (e.g. Agilent Chemstation or equivalent).
Calibration: A working standard (10 or 50 ppm, 2 μL) is injected at the beginning and end of each set of samples, and intermittently within long sequences of sampling, and the concentration determined and compared to the to the standard curve to maintain calibration (+/−5% of standard curve).
General Procedure: Microbial strains (5) are isolated from paper mill water samples onto individual petri plates. Overnight cultures are prepared by inoculating TGE Broth (10 mL) with a single colony from each petri plate (5 isolated strains=5 colonies per 10 mL overnight culture). Each culture is then incubated overnight at 35° C. with shaking. Portions (0.6 mL ea.) of each overnight culture are added to bottles with sterile TGE broth (29.4 mL) and the resulting mixtures are incubated with shaking at 35° C. After 2 hours (T=0), an initial sample from each bottles is taken and analyzed GC as described above. The samples are then dosed with a VFA Control Agent, capped, and incubated with shaking at 35° C. Aliquots of each sample are taken at various times post-dosage and analyzed via GC as described above, with each sample bottle capped and incubated between samplings along with an uninoculated control (sterile TGE broth) and an inoculated control (untreated). % VFA reduction is reported based on the relative VFA concentration (ppm) of a sample determined against the inoculated/untreated control.

[1] = single VFA Control Agent, ppm as per Example (25-500 ppm), 4 h post-dosage, 35° C., vs inoculated/untreated control
[2] = single VFA Control Agent at 50 or 100 ppm as per Example, 0.5 h post-dosage
[3] = single VFA Control Agent at 50 or 100 ppm as per Example, 2 h post-dosage
[4] = single VFA Control Agent at 50 or 100 ppm as per Example, 2.5 h post-dosage

Question: For `O=P1([O-])OP(=O)([O-])OP(=O)([O-])OP(=O)([O-])OP(=O)([O-])OP(=O)([O-])O1.[Na+].[Na+].[Na+].[Na+].[Na+].[Na+]` [Example 3, Sodium hexametaphosphate], which “VFA Red. at 4 h (%)” value [1] is on record?
Answer: Its value is 0%.

Question: `O=P1([O-])OP(=O)([O-])OP(=O)([O-])OP(=O)([O-])OP(=O)([O-])OP(=O)([O-])O1.[Na+].[Na+].[Na+].[Na+].[Na+].[Na+]` [Example 4, Sodium hexametaphosphate] was tested. Which “VFA Red. at 4 h (%)” value [1] did it give?
Answer: Its value is 4%.

Question: With `O=P(O)(O)CN(CCCCCCN(CP(=O)(O)O)CP(=O)(O)O)CCCCCCN(CP(=O)(O)O)CP(=O)(O)O` [Example 5] as the compound, how does the “VFA Red. at 4 h (%)” value [1] read?
Answer: Its value is 4%.

Question: For `O=P(O)(O)CN(CCCCCCN(CP(=O)(O)O)CP(=O)(O)O)CCCCCCN(CP(=O)(O)O)CP(=O)(O)O` [Example 6], which “VFA Red. at 4 h (%)” value [1] is on record?
Answer: Its value is 12%.

Question: Which “VFA Red. at 4 h (%)” value does the source give for `O=P(O)(O)CN(CCN(CP(=O)(O)O)CP(=O)(O)O)CCN(CP(=O)(O)O)CP(=O)(O)O` [Example 7, Diethylenetriamine penta(methylene phosphonic acid)] here?
Answer: Its value is 19%.

Question: For `O=P(O)(O)CN(CCN(CP(=O)(O)O)CP(=O)(O)O)CCN(CP(=O)(O)O)CP(=O)(O)O` [Example 8, Diethylenetriamine penta(methylene phosphonic acid)], which “VFA Red. at 4 h (%)” value is on record?
Answer: Its value is 25%.

Question: For `O=P(O)(O)CN(CCN(CP(=O)(O)O)CP(=O)(O)O)CCN(CP(=O)(O)O)CP(=O)(O)O` [Example 24, Diethylenetriamine penta(methylene phosphonic acid)], which “VFA Red. at 0.5 h (%)” value is on record?
Answer: The value was 2.1%.

Question: And the “VFA Red. at 2 h (%)” value?
Answer: Its value is 6.4%.

Question: What about the “VFA Red. at 2.5 h (%)” value of the same compound?
Answer: Its value is 8.2%.

Question: Which results are given for `O=P(O)(O)CN(CCN(CP(=O)(O)O)CP(=O)(O)O)CCN(CP(=O)(O)O)CP(=O)(O)O` [Example 25, Diethylenetriamine penta(methylene phosphonic acid)]?
Answer: VFA Red. at 0.5 h (%): 8.3%; VFA Red. at 2 h (%): 12.5%; VFA Red. at 2.5 h (%): 9.1%

Question: Which “VFA Red. at 0.5 h (%)” value [2] does the source give for `O=S([O-])O.[Na+]` [Example 28, Sodium bisulfite] here?
Answer: The value was 3.1%.

Question: And the “VFA Red. at 2 h (%)” value [3]?
Answer: The value was 0.0%.

Question: And the “VFA Red. at 2.5 h (%)” value [4]?
Answer: Its value is 6.9%.

Question: Which results are given for `O=S([O-])O.[Na+]` [Example 29, Sodium bisulfite]?
Answer: VFA Red. at 0.5 h (%) [2]: 1.0%; VFA Red. at 2 h (%) [3]: 14.6%; VFA Red. at 2.5 h (%) [4]: 25.5%

Question: For “Diethylenetriamine penta(methylene phosphonic acid) sodium salt [Example 26]”, which “VFA Red. at 0.5 h (%)” value (sodium salt) is on record?
Answer: The value was 3.1%.

Question: And the “VFA Red. at 2 h (%)” value (sodium salt)?
Answer: The value was 6.4%.

Question: And the “VFA Red. at 2.5 h (%)” value (sodium salt)?
Answer: The value was 9.1%.

Question: With “Diethylenetriamine penta(methylene phosphonic acid) sodium salt [Example 27]” as the compound, how does the “VFA Red. at 0.5 h (%)” value (sodium salt) read?
Answer: Its value is 4.2%.

Question: And the “VFA Red. at 2 h (%)” value (sodium salt)?
Answer: The value was 7.9%.

Question: And the “VFA Red. at 2.5 h (%)” value (sodium salt)?
Answer: Its value is 6.9%.

Question: For “Polyamino polyether methylene phosphonic acid [Example 9]”, which “VFA Red. at 4 h (%)” value [1] is on record?
Answer: Its value is 5%.

Question: Which “VFA Red. at 4 h (%)” value [1] does the source give for “Polyamino polyether methylene phosphonic acid [Example 10]” here?
Answer: Its value is 10%.
